The target of assay [1] is T1, RhaS(163-278) (RhaS DNA-binding domain) (Escherichia coli, UniProt P09377).
T1 construct: expressed in transfected cells; host or cells: E. coli SME3635 (rhaB-lacZ, pHG165 expressing RhaS(163-278))
In words: In vivo dose-response, rhaB-lacZ fusion activated by RhaS(163-278) (RhaS-DBD). Format: cell-based, E. coli. The source says:
For dose-response studies, a rhaB-lacZ reporter strain was designed that allowed IPTG induction of RhaS or RhaS(163-278) expression from pHG165 (and thus rhaB-lacZ expression). The strain was constructed by introducing malP::lacIq into SME3000 via phage P1vir-mediated generalized transduction. First, SME3000 was transduced with Δcrp-3 zhc-511::Tn10 from SME1403, selecting for tetracycline resistance and screening for sorbitol deficiency (indicating Δcrp) using MacConkey sorbitol. SME3000 Acrp-3 zhc-511::Tn10 was transduced with crp^+ malP::lacI^q from SG22166, selecting for growth on minimal sorbitol and screening for maltose deficiency (indicating malP::lacI^q) using MacConkey maltose. […]
The top hit identified in the screen was 1-ethyl-4-(nitromethyl)-3-quinolin-2-yl-4H-quinoline, Compound 2. […] Lysis/ONPG buffer (50 μL, as in Primary Screen) was added to each well and the plate was immediately placed into a PowerWave XS plate reader (BioTek Instruments, Inc., Winooski, Vt.), set to read the OD420 of each well every 15 min for 4 hr. […] Due to differences in kinetics of lacZ reporter expression, the rhaB-lacZ strains were analyzed at 4 hours and the hts-lacZ strain was analyzed at 1 hr. Percent activity was calculated for each condition as described above, using the single time point with appropriate OD420 levels for each strain. […]

In assay [2] the test system is Shigella invasion of L-929 cells. In words: Shigella invasion assay (gentamycin protection) in L-929 cells. Format: cell-based, S. flexneri. To be noted: for invasion decrease relative to no inhibitor: Shigella pre-grown with SE-1. The procedure:
S. flexneri ipgD^− (SME4331) and mxiH^− (SB116) mutant strains were grown overnight at 30° C. and then diluted to an OD600 of ˜0.1 into TSB plus ampicillin. SE-1 (in DMSO) was added to the cultures at final concentrations of 0, 20, or 40 μM SE-1 and 0.3% DMSO. These cultures and SB116 (no SE-1) were grown at 37° C. in 24-well plates (each with 1.2 ml), in the temperature-controlled chamber of a PowerWave XS plate reader (BioTek Instruments). Bacterial growth was continued at 37° C. with shaking and OD600 monitored every 15 min. A separate sample of SME4331 was grown at 30° C. L-929 cells (mouse fibroblasts, used previously for Shigella invasion assays) that had been grown overnight to ˜90% confluency in 24-well plates were washed 3 times with 1 ml of RPMI each (without FBS or antibiotics), and the final wash was removed by aspiration. (All L-929 incubation steps were carried out at 37° C. in a 5% CO2 humidified atmosphere.) When the OD600 of the bacterial cultures reached 1.0 (˜2.5 h), samples were diluted 100-fold in pre-warmed RPMI (without FBS or antibiotics) and then 300 μl was added to each monolayer of L-929 cells, for a multiplicity of infection of roughly 20. In a control sample, 40 μM SE-1 and bacteria grown at 37° C. without SE-1 were added at the same time to L-929 cells. The 24-well plate was centrifuged (2000×g) for 5 min at room temperature to initiate bacterial-host cell contact, incubated for 45 min at 37° C., washed three times with 1 ml RPMI containing 50 μg/ml gentamycin (or without gentamycin for the control), and incubated at 37° C. for 2 h. Cells were again washed three times with 1 ml RPMI and then lysed in 100 μl of PBS (Mediatech) containing 0.1% triton X-100 (Promega, Madison, Wis.) for 10 min at room temperature. The 100 μl lysates from the gentamycin treated and untreated L-929 cells were mixed with 400 μl TSB, and 100 μl of 1:50 and 1:250 further dilutions were plated onto TSB agar containing ampicillin. Plates were incubated overnight at 37° C. and colonies were counted. The number of colonies obtained from gentamycin treated samples was divided by the number of colonies from control samples without gentamycin and multiplied by 100 to calculate the invasion index.

T1 sequence (P09377 163-278): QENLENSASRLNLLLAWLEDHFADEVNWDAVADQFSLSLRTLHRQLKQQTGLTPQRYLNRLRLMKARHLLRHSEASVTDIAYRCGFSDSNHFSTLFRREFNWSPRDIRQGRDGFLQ

One may read the IC50 as the concentration needed to halve the response being measured. The inhibition is the relative decrease from the control value, in per cent. For `CCCCN1C=C(c2ccc3ccccc3n2)C(C[N+](=O)[O-])c2ccccc21` (stereo not drawn) [Compound 1, 1-butyl-4-(nitromethyl)-3-quinolin-2-yl-4H-quinoline], the “inhibition of RhaS(163-278)-activated expression” value in assay [1] (RhaS-DBD) was “fully inhibit expression”. In assay [1] (RhaS-DBD (SME3635), read-out: IC50, rhaB-lacZ activation by RhaS(163-278)), the 50% inhibitory concentration (IC50) was around 10 µM. In addition, the figures for the “invasion decrease relative to no inhibitor” value in assay [2] (20 μM) and in assay [2] (40 μM) were 1.7 fold and 3 fold, respectively. Besides, the “invasion when SE-1 and Shigella added at the same time to L-929 cells” value in assay [2] (40 μM SE-1, Shigella grown at 37° C. without inhibitor) is “invaded to the same extent”. The inhibition at 40 µM in assay [2] (Shigella, L929, read-out: maximum inhibition of invasion) is 70%.

These data come from patent US20140088144A1, “INHIBITING MICROBIAL INFECTIONS” (THE UNIVERSITY OF KANSAS, priority 2012, published 2014).
